Key:
[1] = test system: E. coli strain JC7623dxr:CAT; test: growth of dxr-disrupted E. coli strain JC7623dxr:CAT (ME auxotrophy, complementation studies); format: cell-based, Escherichia coli; details: strain JC7623dxr:CAT carrying plasmid pBAD-DXR or pBAD-GFPuv
Source text: The region extending from the 5′-region of the dxr gene to the 3′-flanking region of the yaeS gene was amplified by PCR using genomic DNA isolated from the wild type E. coli strain-W3110 (Kohara et al., 1987) and the primers P1(5′-CTCTGGATGT CATATGAAGCAACTC-3′ (SEQ ID NO:3); the underlined ATG corresponds to the translation start codon of the dxr gene) and P2 (5′-CCGCATAACACCGCCAACC-3′ (SEQ ID NO:4); located at the 3′-flanking region of the yaeS gene). The reaction mixture for the PCR was prepared in a final volume of 50 μl, containing the DNA template (100 ng), 0.5 μM of each primer, 200 μM of each deoxynucleoside triphosphate, 20 mM of Tris-HCl adjusted to pH 8.8, 2 mM Of MgSO4, 10 mM of KCI, 10 mM of (NH4)2SO4, 0.1 mg/ml of BSA and 0.1% Triton X-100. The sample was covered with mineral oil, incubated at 94° C. for 3 min and cooled to 80° C. Pfu DNA polymerase (1.25 units, Stratagene) was added and the reaction mixture was incubated for 30 cycles consisting of 45 sec at 94° C., 45 sec at 59° C. and 10 min at 72° C., followed by a final step of 10 min at 72° C. After amplification, adenines were added to the 3′ ends of the PCR product as indicated by the manufacturers protocol and the adenylated product was cloned into the pGEM-T vector (Promega), to create plasmid pMJ1. […]

[2] = background statement; cited from earlier work

Structure (SMILES)	growth of strain on medium containing the substance [1]	vitamin E activity [2]
C[C@](O)(CO)[C@H](O)CO [ME, 2-C-methyl-D-erythritol]	grows on medium containing ME	–
Cc1c(C)c2c(c(C)c1O)CC[C@@](C)(CCC[C@H](C)CCC[C@H](C)CCCC(C)C)O2 [d-α-tocopherol]	–	1.49 IU/mg
Cc1c(C)c2c(c(C)c1O)CCC(C)(CCCC(C)CCCC(C)CCCC(C)C)O2 (stereo not drawn) [synthetic α-tocopherol, d,l-α-tocopherol]	–	1.1 IU/mg

From patent US7335815B2, “Nucleic acid sequences to proteins involved in isoprenoid synthesis” (Calgene LLC, priority 1999, dated 2008)
